Experimental data taken from patent US11034725B2, “Compositions and methods for treating cardiovascular disease” (Genentech, Inc., priority 2016, dated 2021).
Numbered stars: 1 amine (or outer) side, 2 acyl side, 3 side chain; on linkers, the order of the positions; unused ones are H or OH. Square brackets hold non-standard residues; d marks the D form. Peptide text beside a SMILES is read from it. * marks the point of attachment. Butanoyl(4-(4-HOPh)) = O=C(CCCc1ccc(O)cc1)*; Propanoyl(3-(3-pyridyl)) = O=C(CCc1cccnc1)*; X1 = O=C([C@H]1CC[C@@H](c2ccccc2)CC1)*; Pentanoyl(5-Ph) = O=C(CCCCc1ccccc1)*; hArg = N=C(N)NCCCC[C@H](N)C(=O)O; X22 = O=C(C1CC(Cc2ccccc2)C1)*; Suc = O=C(CCC(=O)[*:2])[*:1]; X25 = COc1cc(CCC(=O)*)ccc1O; X31 = Cc1ccc(OCCCC(=O)*)cc1; X35 = Nc1ccc(CCC(=O)*)cn1; Morpholide = C1CN(*)CCO1

Columns and labels:
PCSK9 = PCSK9 (Homo sapiens, UniProt Q8NBP7); assay: PCSK9/EGF(A) TR-FRET binding assay; conditions: TR-FRET; Table 8E, additional compounds; read-out: PCSK9/EGF(A) IC50
PCSK9Δhelix = biological target: T1, PCSK9Δhelix (Homo sapiens, UniProt Q8NBP7); assay: PCSK9Δhelix/Ab20 TR-FRET binding assay; conditions: TR-FRET; Table 8E, additional compounds; read-out: PCSK9Δhelix/Ab20 IC50
T1 construct: Human PCSK9 construct M1-Q692 with an engineered TEV site (residue deletion Y166, R167); made in house; host or cells: CHO
T1 sequence (Q8NBP7 with tags, fused parts or gaps limits assumed): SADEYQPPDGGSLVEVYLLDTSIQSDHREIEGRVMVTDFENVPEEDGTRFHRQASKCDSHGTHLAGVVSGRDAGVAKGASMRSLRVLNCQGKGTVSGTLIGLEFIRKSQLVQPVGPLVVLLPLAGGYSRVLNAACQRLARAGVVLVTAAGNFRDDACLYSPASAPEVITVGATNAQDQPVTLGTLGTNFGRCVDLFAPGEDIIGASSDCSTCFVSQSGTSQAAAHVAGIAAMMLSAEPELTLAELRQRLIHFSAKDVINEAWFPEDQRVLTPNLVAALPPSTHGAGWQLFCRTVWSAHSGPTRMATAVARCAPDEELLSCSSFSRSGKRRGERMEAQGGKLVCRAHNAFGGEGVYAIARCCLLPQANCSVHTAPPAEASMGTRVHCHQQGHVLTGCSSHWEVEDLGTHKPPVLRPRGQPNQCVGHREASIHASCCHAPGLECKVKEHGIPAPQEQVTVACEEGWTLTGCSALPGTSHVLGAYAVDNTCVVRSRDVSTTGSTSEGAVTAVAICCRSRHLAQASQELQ
T1 sequence (Q8NBP7 31-152 partner limits assumed): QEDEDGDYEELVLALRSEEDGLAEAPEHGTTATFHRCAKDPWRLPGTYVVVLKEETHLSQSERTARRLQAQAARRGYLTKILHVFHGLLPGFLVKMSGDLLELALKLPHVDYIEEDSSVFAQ
Protocol: The former was based on a TF-FRET assay to measure the association of the EGF(A) domain of the LDLR to PCSK9 (“PCSK9/EGF(A) binding assay”) whilst the latter was based on a TR-FRET assay to measure binding of Ab20 to PCSK9Δhelix (“PCSK9Δhelix/Ab20 binding assay”).
The ability of compounds to inhibit binding to PCSK9 was evaluated with a panel of time-resolved fluorescence resonance energy transfer (TR-FRET) binding assays. […] The PCSK9Δhelix/Ab20 binding assay evaluated the ability of compounds to compete with Ab20 for binding to the N-terminal groove region in a His-tagged, PCSK9Δhelix construct. […] Signal generation in the PCSK9 binding assays was dependent upon the binding interaction to bring into close proximity the His-tag on the PCSK9 and the Fc-tag on the ligand. Anti-His-APC was bound to the His-tag, and anti-Fc-europium was bound to the Fc-tag. When these two antibodies were in close proximity and were irradiated with light at 340 nm, the europium was excited and emitted energy at 615 nm. This energy was taken up by the APC and was emitted as light at 665 nm. Compounds that competed with the ligand reduced the energy transfer and thus the emission at 665 nm. In the His-EGFA-Fc molecule in the counterscreen, the two tags were always in close proximity, thus any reduction in emission at 665 nm was due to interference with the detection system.
Compounds were solubilized and dilutions were prepared in DMSO. […] The plate was centrifuged to mix the well contents and allowed to incubate for 30 min. […] The TR-FRET signal was read on a ViewLux reader (PerkinElmer) with excitation at 340 nm and emission at 615 and 665 nm with a 50-μs time delay between excitation and measurement of emission. The TR-FRET ratio was calculated as the fluorescence emission at 665 nm divided by the fluorescence emission at 615 nm. The normalized TR-FRET ratios were plotted as a function of the compound concentrations, and the IC50 values were determined using a 4-parameter logistic regression.
In black 1536-well assay plates (MaKO, Aurora® Microplates, Whitefish, Mont.), 40 nL of peptide in DMSO were preincubated with 2 μL His-tagged PCSK9 plus anti-His-allophycocyanin in assay buffer (50 mM Tris-HCl, pH 7.5, 150 mM NaCl, 2 mM CaCl2, 0.01% Tween®-20, 0.1% bovine gamma globulins, and protease inhibitor cocktail) for 30 min. Then 2 μL of Fc-tagged ligand and anti-Fc-europium in assay buffer were added and allowed to incubate for 2 h.

PCSK9, sequence (Q8NBP7 153-692): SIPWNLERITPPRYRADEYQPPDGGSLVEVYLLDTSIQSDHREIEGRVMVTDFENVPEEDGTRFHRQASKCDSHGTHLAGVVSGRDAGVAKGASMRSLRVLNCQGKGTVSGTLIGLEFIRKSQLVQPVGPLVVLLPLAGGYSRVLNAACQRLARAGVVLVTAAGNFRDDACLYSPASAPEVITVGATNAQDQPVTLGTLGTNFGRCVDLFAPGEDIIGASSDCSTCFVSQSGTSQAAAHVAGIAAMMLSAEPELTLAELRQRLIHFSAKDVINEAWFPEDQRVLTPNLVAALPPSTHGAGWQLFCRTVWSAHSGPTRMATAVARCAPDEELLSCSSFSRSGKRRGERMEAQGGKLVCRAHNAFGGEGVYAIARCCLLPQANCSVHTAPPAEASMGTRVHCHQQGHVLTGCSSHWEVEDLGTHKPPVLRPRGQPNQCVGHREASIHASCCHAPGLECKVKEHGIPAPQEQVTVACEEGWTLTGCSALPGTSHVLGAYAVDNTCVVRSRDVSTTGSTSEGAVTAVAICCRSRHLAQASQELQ
PCSK9, sequence (Q8NBP7 31-152 partner limits assumed): as the sequence (Q8NBP7 31-152 partner limits assumed) above

CC[C@H](C)[C@H](NC(=O)[C@H](CCCCNC(=N)N)NC(=O)[C@@H](NC(=O)[C@H](CC(C)C)NC(=O)[C@H](CC(N)=O)NC(=O)[C@H](Cc1c[nH]c2ccccc12)NC(=O)CCCc1ccc(O)cc1)C(C)C)C(=O)NCC(=O)N[C@@H](CC(C)C)C(=O)N[C@@H](CC(C)C)C(=O)N[C@@H](CCCNC(=N)N)C(N)=O [Compound 220] ({Butanoyl(4-(4-HOPh))}-WNLV[hArg]IGLLR-NH2) gave an IC50 (PCSK9) of 37 µM and an IC50 (PCSK9Δhelix) of 0.91 µM.
In the case of CC[C@H](C)[C@H](NC(=O)[C@H](CCCNC(=N)N)NC(=O)[C@@H](NC(=O)[C@H](CC(C)C)NC(=O)[C@H](CC(N)=O)NC(=O)[C@H](Cc1c[nH]c2ccccc12)NC(=O)C1CC(Cc2ccccc2)C1)C(C)C)C(=O)NCC(=O)N[C@@H](CC(C)C)C(=O)N[C@H](C(=O)N[C@@H](CCCNC(=N)N)C(N)=O)[C@@H](C)O (stereo partly drawn) [Compound 184] (X22-WNLVRIGLTR-NH2), the IC50 (PCSK9) is reported as 19 µM and the IC50 (PCSK9Δhelix) is reported as 12 µM.
With CC[C@H](C)[C@H](NC(=O)[C@H](CCCNC(=N)N)NC(=O)[C@@H](NC(=O)[C@H](CC(C)C)NC(=O)[C@H](CC(N)=O)NC(=O)[C@H](Cc1c[nH]c2ccccc12)NC(=O)CCC(=O)N1CCOCC1)C(C)C)C(=O)NCC(=O)N[C@@H](CC(C)C)C(=O)N[C@H](C(=O)N[C@@H](CCCNC(=N)N)C(N)=O)[C@@H](C)O [Compound 167] ({Morpholide-Suc}-WNLVRIGLTR-NH2) the IC50 (PCSK9) was at least 50 µM and the IC50 (PCSK9Δhelix) was 43 µM.
For CC[C@H](C)[C@H](NC(=O)[C@H](CCCCNC(=N)N)NC(=O)[C@@H](NC(=O)[C@H](CC(C)C)NC(=O)[C@H](CC(N)=O)NC(=O)[C@H](Cc1c[nH]c2ccccc12)NC(=O)[C@H]1CC[C@@H](c2ccccc2)CC1)C(C)C)C(=O)NCC(=O)N[C@@H](CC(C)C)C(=O)N[C@@H](CC(C)C)C(=O)N[C@@H](CCCNC(=N)N)C(N)=O [Compound 208] (X1-WNLV[hArg]IGLLR-NH2), the IC50 (PCSK9) was 0.45 µM and the IC50 (PCSK9Δhelix) was 0.1 µM.
CC[C@H](C)[C@H](NC(=O)[C@H](CCCNC(=N)N)NC(=O)[C@@H](NC(=O)[C@H](CC(C)C)NC(=O)[C@H](CC(N)=O)NC(=O)[C@H](Cc1c[nH]c2ccccc12)NC(=O)CCCCc1ccccc1)C(C)C)C(=O)NCC(=O)N[C@@H](CC(C)C)C(=O)N[C@@H](CC(C)C)C(=O)N[C@@H](CCCNC(=N)N)C(N)=O [Compound 146] ({Pentanoyl(5-Ph)}-WNLVRIGLLR-NH2) gave an IC50 (PCSK9) of 11 µM and an IC50 (PCSK9Δhelix) of 1.7 µM.
Molecule CC[C@H](C)[C@H](NC(=O)[C@H](CCCNC(=N)N)NC(=O)[C@@H](NC(=O)[C@H](CC(C)C)NC(=O)[C@H](CC(N)=O)NC(=O)[C@H](Cc1c[nH]c2ccccc12)NC(=O)CCc1cccnc1)C(C)C)C(=O)NCC(=O)N[C@@H](CC(C)C)C(=O)N[C@H](C(=O)N[C@@H](CCCNC(=N)N)C(N)=O)[C@@H](C)O [Compound 173] ({Propanoyl(3-(3-pyridyl))}-WNLVRIGLTR-NH2) has an IC50 (PCSK9) of at least 50 µM and an IC50 (PCSK9Δhelix) of 9.8 µM.
With CC[C@H](C)[C@H](NC(=O)[C@H](CCCCNC(=N)N)NC(=O)[C@@H](NC(=O)[C@H](CC(C)C)NC(=O)[C@H](CC(N)=O)NC(=O)[C@H](Cc1c[nH]c2ccccc12)NC(=O)CCc1ccc(O)c(OC)c1)C(C)C)C(=O)NCC(=O)N[C@@H](CC(N)=O)C(=O)N[C@@H](CCCNC(=N)N)C(N)=O [Compound 240] (X25-WNLV[hArg]IGNR-NH2) the IC50 (PCSK9) was 31 µM and the IC50 (PCSK9Δhelix) was 0.92 µM.
With CC[C@H](C)[C@H](NC(=O)[C@H](CCCNC(=N)N)NC(=O)[C@@H](NC(=O)[C@H](CC(C)C)NC(=O)[C@H](CC(N)=O)NC(=O)[C@H](Cc1c[nH]c2ccccc12)NC(=O)CCc1ccc(N)nc1)C(C)C)C(=O)NCC(=O)N[C@@H](CC(C)C)C(=O)N[C@H](C(=O)N[C@@H](CCCNC(=N)N)C(N)=O)[C@@H](C)O [Compound 171] (X35-WNLVRIGLTR-NH2) the IC50 (PCSK9) was at least 50 µM and the IC50 (PCSK9Δhelix) was 7.7 µM.
CC[C@H](C)[C@H](NC(=O)[C@H](CCCCNC(=N)N)NC(=O)[C@@H](NC(=O)[C@H](CC(C)C)NC(=O)[C@H](CC(N)=O)NC(=O)[C@H](Cc1c[nH]c2ccccc12)NC(=O)CCCOc1ccc(C)cc1)C(C)C)C(=O)NCC(=O)N[C@@H](CC(C)C)C(=O)N[C@@H](CC(C)C)C(=O)N[C@@H](CCCNC(=N)N)C(N)=O [Compound 207] (X31-WNLV[hArg]IGLLR-NH2) gave an IC50 (PCSK9) of 1.3 µM and an IC50 (PCSK9Δhelix) of 0.32 µM.
